Data from ChEMBL document CHEMBL2074408, “Altered pharmacokinetics of vinblastine in Mdr1a P-glycoprotein-deficient Mice” (J Natl Cancer Inst, 1996).

Target: ATP-dependent translocase ABCB1 (Mus musculus, UniProt P21447)
Assay: TP_TRANSPORTER: increase in brain concentration in mdr1a(-/-) mouse
Type: functional, organism-based
Conditions: in vivo

Chain of ATP-dependent translocase ABCB1 (P21447 whole entry): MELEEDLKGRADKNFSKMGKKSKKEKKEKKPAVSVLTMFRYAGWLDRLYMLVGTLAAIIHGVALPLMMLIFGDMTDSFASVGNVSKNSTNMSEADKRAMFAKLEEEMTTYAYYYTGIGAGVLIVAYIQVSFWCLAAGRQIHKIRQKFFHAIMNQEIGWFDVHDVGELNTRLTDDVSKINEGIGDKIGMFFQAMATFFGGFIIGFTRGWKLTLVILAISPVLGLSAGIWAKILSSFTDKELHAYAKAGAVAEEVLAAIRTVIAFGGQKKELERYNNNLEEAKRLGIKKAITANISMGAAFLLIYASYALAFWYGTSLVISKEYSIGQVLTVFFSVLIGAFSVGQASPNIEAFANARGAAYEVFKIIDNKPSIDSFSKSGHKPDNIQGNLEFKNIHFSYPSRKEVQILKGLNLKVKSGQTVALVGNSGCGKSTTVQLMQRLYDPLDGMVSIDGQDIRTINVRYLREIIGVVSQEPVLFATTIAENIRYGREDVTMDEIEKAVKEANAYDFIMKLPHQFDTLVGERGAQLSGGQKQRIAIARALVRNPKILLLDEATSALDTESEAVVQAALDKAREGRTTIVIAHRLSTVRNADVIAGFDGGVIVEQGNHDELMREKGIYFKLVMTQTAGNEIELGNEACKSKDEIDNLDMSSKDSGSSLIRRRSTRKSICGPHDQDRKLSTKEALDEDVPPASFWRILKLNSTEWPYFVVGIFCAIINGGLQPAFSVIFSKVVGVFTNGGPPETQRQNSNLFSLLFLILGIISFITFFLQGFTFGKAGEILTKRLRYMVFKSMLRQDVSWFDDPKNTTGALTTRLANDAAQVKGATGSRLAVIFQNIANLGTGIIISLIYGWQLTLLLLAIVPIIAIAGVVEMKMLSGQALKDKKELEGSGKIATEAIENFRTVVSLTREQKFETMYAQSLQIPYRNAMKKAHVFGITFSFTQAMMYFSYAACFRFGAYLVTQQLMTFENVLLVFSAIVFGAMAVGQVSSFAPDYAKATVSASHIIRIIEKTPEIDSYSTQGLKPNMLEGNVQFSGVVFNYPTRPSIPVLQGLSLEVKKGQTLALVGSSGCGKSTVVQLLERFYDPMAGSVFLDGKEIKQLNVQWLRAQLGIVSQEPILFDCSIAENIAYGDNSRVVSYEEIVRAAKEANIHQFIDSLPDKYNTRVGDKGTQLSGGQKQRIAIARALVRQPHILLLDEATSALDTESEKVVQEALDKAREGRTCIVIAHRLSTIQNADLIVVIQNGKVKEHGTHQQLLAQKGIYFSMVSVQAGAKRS

CC[C@]1(O)C[C@H]2CN(CCc3c([nH]c4ccccc34)[C@@](C(=O)OC)(c3cc4c(cc3OC)N(C=O)[C@H]3[C@@](O)(C(=O)OC)[C@H](OC(C)=O)[C@]5(CC)C=CCN6CC[C@]43[C@@H]65)C2)C1 [VINCRISTINE]
Activity: substrate [+]
